From patent US20080269170A1, “Novel 2,4-Dianilinopyrimidine Derivatives, the Preparation Thereof, Their Use as Medicaments, Pharmaceutical Compositions and, in Particular, as IKK Inhibitors” (sanofi-aventis, priority 2005, published 2008)

| melting point | SMILES |
| --- | --- |
| 114.5 °C | Cc1cc(Nc2ccnc(Nc3ccc(S(=O)(=O)N(C)C4CCN(CCS(C)(=O)=O)CC4)cc3)n2)ccc1F [Example 129, 4-({4-[(4-Fluoro-3-methylphenyl)amino]-pyrimidin-2-yl}amino)-N-methyl-N-{1-[2-(methyl-sulfonyl)ethyl]piperidin-4-yl}benzenesulfonamide] |
| 232 °C | CCCN(C1CCN(C)CC1)S(=O)(=O)c1ccc(Nc2nccc(Nc3ccc(F)cc3)n2)cc1 [Example 130, 4-({4-[(4-Fluorophenyl)amino]pyrimidin-2-yl}amino)-N-propyl-N-(1-methylpiperidin-4-yl)benzene-sulfonamide] |
| 176 to 177 °C | Cc1cc(Nc2ccnc(Nc3ccc(S(=O)(=O)N(C)C4CCN(Cc5nccs5)CC4)cc3)n2)ccc1F [Example 131, 4-({4-[(4-Fluoro-3-methylphenyl)amino]-pyrimidin-2-yl}amino)-N-methyl-N-{1-[(1-thiazol-2-yl)-methyl]piperidin-4-yl}benzenesulfonamide] |
| 196 to 197 °C | Cc1cc(Nc2ccnc(Nc3ccc(S(=O)(=O)N(C)C4CCN(Cc5cncs5)CC4)cc3)n2)ccc1F [Example 132, 4-({4-[(4-Fluoro-3-methylphenyl)amino]-pyrimidin-2-yl}amino)-N-methyl-N-{1-[(1-thiazol-5-yl)-methyl]piperidin-4-yl}benzenesulfonamide] |
| 224 °C | Cc1cc(Nc2ccnc(Nc3ccc(S(=O)(=O)N(C)C4CCN(Cc5cn[nH]c5)CC4)cc3)n2)ccc1F [Example 134, 4-({4-[(4-Fluoro-3-methylphenyl)amino]-pyrimidin-2-yl}amino)-N-methyl-N-{1-[(1H-pyrazol-4-yl)methyl]piperidin-4-yl}benzenesulfonamide] |
| 125 to 150 °C | Cc1cc(Nc2ccnc(Nc3ccc(S(=O)(=O)N(C)C4CCN(Cc5cnn(C)c5)CC4)cc3)n2)ccc1F [Example 135, 4-({4-[(4-Fluoro-3-methylphenyl)amino]-pyrimidin-2-yl}amino)-N-methyl-N-{1-[(1-methyl-1H-pyrazol-4-yl)methyl]piperidin-4-yl}benzenesulfonamide] |
| 130 °C | Cc1cc(CN2CCC(N(C)S(=O)(=O)c3ccc(Nc4nccc(Nc5ccc(F)c(C)c5)n4)cc3)CC2)[nH]n1 [Example 136, 4-({4-[(4-Fluoro-3-methylphenyl)amino]-pyrimidin-2-yl}amino)-N-methyl-N-{1-[(5-methyl-2H-pyrazol-3-yl)methyl]piperidin-4-yl}benzenesulfonamide] |
| 164 to 165 °C | Cc1cc(Nc2ccnc(Nc3ccc(S(=O)(=O)N(C)C4CCC(F)(F)CC4)cc3)n2)ccc1F [Example 137, N-(4,4-Difluorocyclohexyl)-4-[4-(4-fluoro-3-methylphenylamino)pyrimidin-2-ylamino]-N-methyl-benzenesulfonamide] |
| 172 to 173 °C | Cc1cc(CN2CCC(N(C)S(=O)(=O)c3ccc(Nc4nccc(Nc5ccc(F)c(C)c5)n4)cc3)CC2)no1 [Example 138, 4-({4-[(4-Fluoro-3-methylphenyl)amino]-pyrimidin-2-yl}amino)-N-methyl-N-{1-[(5-methylisoxazol-3-yl)methyl]piperidin-4-yl}benzenesulfonamide] |
| 188 °C | Cc1cc(Nc2ccnc(Nc3ccc(S(=O)(=O)N(C)C4CCCN(C)C4)cc3)n2)ccc1F (stereo not shown) [Example 139, 4-({4-[(4-Fluoro-3-methylphenyl)amino]-pyrimidin-2-yl}amino)-N-methyl-N-(1-methylpiperidin-3-yl)benzenesulfonamide] |
| 178 °C | CCNC1CCC(N(C)S(=O)(=O)c2ccc(Nc3nccc(Nc4ccc(F)cc4)n3)cc2)CC1 (stereo not drawn) [Example 143, 4-({4-[(4-Fluorophenyl)amino]pyrimidin-2-yl}amino)-N-methyl-N-[4-trans(ethylamino)cyclohexyl]-benzenesulfonamide] |
| 187 °C | C#CCN(C1CCN(C)CC1)S(=O)(=O)c1ccc(Nc2nccc(Nc3ccc(F)cc3)n2)cc1 [Example 148, 4-({4-[(4-Fluorophenyl)amino]pyrimidin-2-yl}amino)-N-propargyl-N-(1-methylpiperidin-4-yl)-benzenesulfonamide] |
| 154 °C | CCN(C1CCN(C)CC1)S(=O)(=O)c1ccc(Nc2nccc(Nc3ccc(F)cc3)n2)cc1 [Example 149, 4-({4-[(4-Fluorophenyl)amino]pyrimidin-2-yl}amino)-N-ethyl-N-(1-methylpiperidin-4-yl)benzene-sulfonamide] |
| 129 °C | CN1CCC(N(Cc2cccn2C)S(=O)(=O)c2ccc(Nc3nccc(Nc4ccc(F)cc4)n3)cc2)CC1 [Example 161, 4-({4-[(4-Fluorophenyl)amino]pyrimidin-2-yl}amino)-N-(1-methylpiperidin-4-yl)-N-[(1-methyl-1H-pyrrol-2-yl)methyl]benzenesulfonamide] |
| 149 to 152 °C | CN(C1CCN(Cc2cccn2C)CC1)S(=O)(=O)c1ccc(Nc2nccc(Nc3ccc(F)c(F)c3)n2)cc1 [Example 164, 4-({4-[(3,4-Difluorophenyl)amino]pyrimidin-2-yl}amino)-N-methyl-N-{1-[(1-methyl-1H-pyrrol-2-yl)methyl]piperidin-4-yl)benzenesulfonamide] |
| 204 to 206 °C | Cc1cc(CN2CCC(N(C)S(=O)(=O)c3ccc(Nc4nccc(Nc5ccc(F)c(F)c5)n4)cc3)CC2)no1 [Example 166, 4-({4-[(3,4-Difluorophenyl)amino]pyrimidin-2-yl}amino)-N-methyl-N-{1-[(5-methylisoxazol-3-yl)methyl]piperidin-4-yl}benzenesulfonamide] |
| 234 to 235 °C | CN(C1CCN(CC(C)(C)O)CC1)S(=O)(=O)c1ccc(Nc2nccc(Nc3ccc(F)c(F)c3)n2)cc1 [Example 167, 4-[4-(3,4-Difluorophenylamino)pyrimidin-2-ylamino]-N-[1-(2-hydroxy-2-methylpropyl)piperidin-4-yl]-N-methylbenzenesulfonamide] |
| 184 °C | Cc1cc(Nc2ccnc(Nc3ccc(S(=O)(=O)N(Cc4ccco4)C4CCC(=O)CC4)cc3)n2)ccc1F [Example 168] |

Continued, compound first:

| SMILES | melting point |
| --- | --- |
| CN(C)C1CCC(N(C)S(=O)(=O)c2ccc(Nc3nccc(Nc4ccc(F)cc4)n3)cc2)CC1 (stereo not drawn) [Example 140, 4-({4-[(4-Fluorophenyl)amino]pyrimidin-2-yl}amino)-N-methyl-N-[4-cis(dimethylamino)cyclohexyl]-benzenesulfonamide] | 222 °C |
| CN(C)C1CCC(N(C)S(=O)(=O)c2ccc(Nc3nccc(Nc4ccc(F)cc4)n3)cc2)CC1 (stereo not drawn) [Example 141, 4-({4-[(4-Fluorophenyl)amino]pyrimidin-2-yl}amino)-N-methyl-N-[4-trans(dimethylamino)cyclo-hexyl]benzenesulfonamide] | 218 °C |
| CCNC1CCC(N(C)S(=O)(=O)c2ccc(Nc3nccc(Nc4ccc(F)cc4)n3)cc2)CC1 (stereo not drawn) [Example 142, 4-({4-[(4-Fluorophenyl)amino]pyrimidin-2-yl}amino)-N-methyl-N-[4-cis(ethylamino)cyclohexyl]-benzenesulfonamide] | 188 °C |
| CSCCNC1CCC(N(C)S(=O)(=O)c2ccc(Nc3nccc(Nc4ccc(F)cc4)n3)cc2)CC1 (stereo not drawn) [Example 144, 4-({4-[(4-Fluorophenyl)amino]pyrimidin-2-yl}amino)-N-methyl-N-[4-cis(2-methylsulfanylethyl-amino)cyclohexyl]benzenesulfonamide] | 146 °C |
| CSCCNC1CCC(N(C)S(=O)(=O)c2ccc(Nc3nccc(Nc4ccc(F)cc4)n3)cc2)CC1 (stereo not drawn) [Example 145, 4-({4-[(4-Fluorophenyl)amino]pyrimidin-2-yl}amino)-N-methyl-N-[4-trans(2-methylsulfanylethyl-amino)cyclohexyl]benzenesulfonamide] | 171 °C |
| CNC1CCC(N(CCN2CCCC2)S(=O)(=O)c2ccc(Nc3nccc(Nc4ccc(F)cc4)n3)cc2)CC1 (stereo not drawn) [Example 146, 4-({4-[(4-Fluorophenyl)amino]pyrimidin-2-yl}amino)-N-(4-cis(methylamino)cyclohexyl)-N-(2-pyrrolidin-1-ylethyl)benzenesulfonamide] | 189 °C |
| CNC1CCC(N(CCN2CCCC2)S(=O)(=O)c2ccc(Nc3nccc(Nc4ccc(F)cc4)n3)cc2)CC1 (stereo not drawn) [Example 147, 4-({4-[(4-Fluorophenyl)amino]pyrimidin-2-yl}amino)-N-(4-trans(methylamino)cyclohexyl)-N-(2-pyr-rolidin-1-ylethyl)benzenesulfonamide] | 128 °C |
| CN(C1CCN(C2CC2)CC1)S(=O)(=O)c1ccc(Nc2nccc(Nc3ccc(F)cc3)n2)cc1 [Example 150, N-(1-Cyclopropylpiperidin-4-yl)-4-({4-[(4-fluorophenyl)amino]pyrimidin-2-yl}amino)-N-methyl-benzenesulfonamide] | 125 to 128 °C |
| CN1CCC(N(CC[C@H]2CCCN2)S(=O)(=O)c2ccc(Nc3nccc(Nc4ccc(F)cc4)n3)cc2)CC1 [Example 153, 4-({4-[(4-Fluorophenyl)amino]pyrimidin-2-yl}amino)-N-(1-methylpiperidin-4-yl)-N-{2-[(2R)-pyrrol-idin-2-yl]ethyl}benzenesulfonamide] | 85 °C |
| COc1cc(Nc2ccnc(Nc3ccc(S(=O)(=O)N(CCN4CCCC4)C4CCN(C5CC5)CC4)cc3)n2)ccc1F [Example 156] | 139 °C |
| CN1CCC(N(C)S(=O)(=O)c2ccc(Nc3nccc(Nc4cc(F)c(F)c(F)c4)n3)cc2)CC1 [Example 162, 4-[4-(3,4,5-Trifluorophenylamino)pyrimidin-2-ylamino]-N-methyl-N-(1-methylpiperidin-4-yl)benzenesulfonamide] | 226.9 °C |
| CN(C1CCN(CCS(C)(=O)=O)CC1)S(=O)(=O)c1ccc(Nc2nccc(Nc3ccc(F)c(F)c3)n2)cc1 [Example 163, 4-({4-[(3,4-Difluorophenyl)amino]pyrimidin-2-yl}amino)-N-methyl-N-{1-[2-(methyl-sulfonyl)ethyl]piperidin-4-yl}benzenesulfonamide] | 204 °C |
| CN(C1CCN(Cc2csnn2)CC1)S(=O)(=O)c1ccc(Nc2nccc(Nc3ccc(F)c(F)c3)n2)cc1 [Example 165, 4-({4-[(3,4-Difluorophenyl)amino]pyrimidin-2-yl}amino)-N-methyl-N-(1-{[1-(1,2,3)thiadiazol-4-yl]methyl}piperidin-4-yl)benzenesulfonamide] | 172 to 173 °C |
